Assay results taken from PubChem BioAssay (NCI).
Where “and” joins values, the source holds several entries; their conditions need not be identical. Equal values may be shown once.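 48-hour exposure; five concentrations; linearly interpolated endpoints. Here, GI50 denotes the concentration required for 50% inhibition of growth. TGI denotes the concentration required for complete inhibition of growth.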 Where a SMILES comes first, the peptide text is derived from it.

These molecules were tested on MDA-MB-468 breast (assay: NCI tumour cell line growth inhibition, 48 h).
`Cn1cc(-c2nc(N)nnc2-c2c[nH]c3ccccc23)c2cc(Br)ccc21` was tested, and the GI50 was 0.342 µM and the TGI was 2.04 µM. Work on `COc1ccc(/C=C/C(=O)Nc2cc(/C=C\c3cc(OC)c(OC)c(OC)c3)cc(OC)c2OC)cc1OC` yielded a GI50 of 1.74 µM and a TGI of 7.52 µM. With `COC(=O)N[C@H]1C=C[C@@H]2/C=C(C)/C=C/[C@@H](C)[C@H]([C@H](C)[C@H](O)[C@@H](C)NC(C)=O)OC(=O)/C=C/C=C(C)\C=C\[C@]2(C)C1` the GI50 was 0.00432 µM and 0.00453 µM and the TGI was > 45.3 µM. For `CCNC(=O)N1CCc2c(Cl)c3c(c(OC)c2[C@@H]1[C@H]1OCc2c1ccc(OC)c2OC)OCCO3`, the GI50 was 2.65 µM and the TGI was > 100 µM. Molecule `CC(C)(C(=O)NCC(F)(F)C(F)(F)F)C(=O)N[C@@H]1C(=O)Nc2ccccc2-c2ccccc21` has a GI50 of 12.7 µM and a TGI of 73 µM. `CCOc1ccccc1C(=O)/C=C/c1cc2ccccc2[nH]c1=O` gave a GI50 of 0.162 µM and a TGI of 1.63 µM. For `CCC(C)C1NC(=O)C(CCCCN)NC(=O)C(CCCCN)NC(=O)C(CC(C)C)NC(=O)C(CCCCN)NC(=O)C(C(C)CC)NC(=O)C(C(C)C)NC(=O)C(C(C)CC)NC(=O)C(CCCCN)NC(=O)C(CCCCN)NC(=O)C(C)NC(=O)C(CCCCN)NC(=O)C(CC(C)C)NC1=O` (stereo not given) (cyclo(AKKIVIKLKKILK); configuration not given here), the GI50 was 0.564 µM and the TGI was 2.3 µM. `CCCCCCC(O)(c1ccc(F)cc1)C(CN1CCOCC1)c1ccccc1` (stereo not given) was tested, and the GI50 was 4.93 µM and the TGI was 18.6 µM. In the case of `COc1cc2nccc(Oc3ccc(NC(=O)C4(C(=O)Nc5ccc(F)cc5)CC4)cc3)c2cc1OC(=O)c1ccc(N)cc1`, the GI50 is reported as 3.99 µM and the TGI is reported as > 100 µM. `CCCCCCCCCCCCCCCC(=O)Nc1ccn([C@@H]2O[C@H](CO)[C@@H](O)[C@@H]2C#N)c(=O)n1` was tested, and the GI50 was 48.7 µM and the TGI was > 100 µM. Molecule `CCNCCNc1cc(-c2ccc(Cl)c(Cl)c2)c(C#N)c2nc3ccccc3n12` has a GI50 of 1.14 µM and a TGI of 2.52 µM. For `O=Cc1cn(Cc2ccccc2)c2ccccc12`, the GI50 was 0.174 µM and the TGI was 0.469 µM. `Cn1cc(-c2csc(-c3c[nH]c4ccccc34)n2)c2cccnc21` showed a GI50 of 0.915 µM and a TGI of 4.18 µM. In the case of `C#CC(F)(F)[C@]1(O)CC[C@H]2[C@@H]3CCC4=CC(=O)CCC4=C3[C@@H](c3ccc(C4CC4)cc3)C[C@@]21C`, the GI50 is reported as 0.121 µM and 0.265 µM and the TGI is reported as 0.438 µM and 1.52 µM. In the case of `CCCCCN1C(=O)/C(=c2\sc3n(c2=O)C2C(NN=3)N(CC)C(=O)N2CC)c2ccccc21` (stereo not given), the GI50 is reported as 0.369 µM and the TGI is reported as 2 µM. For `O=C(Nc1ccccc1C(=O)N/N=C(\c1ccccc1)c1ccccn1)c1ccccc1`, the GI50 was 0.338 µM and the TGI was 2.38 µM. In the case of `O=S(=O)(Nc1cc(F)cc(F)c1)c1ccc(-c2cnc(C3CC3)o2)cc1`, the GI50 is reported as 1.37 µM and the TGI is reported as 17.9 µM. Work on `COc1ccc2nc3c(n2c1)C(=O)C(=O)c1ccccc1-3` yielded a GI50 of 2.18 µM and a TGI of 5.63 µM. For `O=C1NC(=NCc2c(Cl)cccc2Cl)S/C1=C\c1ccc2ncccc2c1`, the GI50 was 6.24 µM and the TGI was > 25 µM. `Fc1ccc(-c2ncn(C3CCNCC3)c2-c2ccnc(Oc3cccc(C(F)(F)F)c3)n2)cc1` gave a GI50 of 1.57 µM and a TGI of 5.31 µM. With `NS(=O)(=O)c1ccc(N=Nc2c(O)[nH]c3ccc(Cl)cc23)cc1` the GI50 was > 20.1 µM and the TGI was > 25 µM. `C#CCNCCCN1C(=O)c2ccc3c4c(ccc(c24)C1=O)C(=O)N(CCCNCC#C)C3=O` was tested, and the GI50 was 0.129 µM and the TGI was 0.308 µM. For `COc1cc(-c2cc(-c3nc4ccc(F)cc4[nH]3)[nH]n2)cc(OC)c1OC`, the GI50 was 1.56 µM and the TGI was 9.67 µM. In the case of `C#CC#CC#CC#CC#CC#CC#CC#CC[C@@H]1OC[C@H](COC(=O)O[C@@H](C(=O)O[C@H]2C[C@@]3(O)[C@@H](OC(=O)c4ccccc4)[C@@H]4[C@]5(OC(C)=O)CO[C@@H]5C[C@H](O)[C@@]4(C)C(=O)[C@H](OC(C)=O)C(=C2C)C3(C)C)[C@@H](NC(=O)c2ccccc2)c2ccccc2)O1`, the GI50 is reported as 0.439 µM and the TGI is reported as 1.59 µM. Work on `O=S(=O)(Nc1ccc2ccccc2c1)N1CCCCC1` yielded a GI50 of 2.81 µM and a TGI of 10.3 µM. `COc1ccc(CCc2nc3cc(-c4c(C)noc4C)ccc3n2CCN2CCOCC2)cc1` was tested, and the GI50 was 8.78 µM and the TGI was > 100 µM. `COc1ccc(/C=C(/C(=O)N2CCCCC2)c2cc(OC)c(OC)c(OC)c2)cc1` was tested, and the GI50 was 0.498 µM and the TGI was > 100 µM. In the case of `CCCCCCCCn1ccc2cc(NC(=O)Cn3cc(CN4CCN(CC)CC4)nn3)ccc21`, the GI50 is reported as 1.53 µM and the TGI is reported as 3.04 µM. For `Cn1cc(C2=C(n3ccc4ccccc43)C(=O)NC2=O)c2ccccc21`, the GI50 was > 25 µM and the TGI was > 25 µM. Molecule `COC(=O)[C@]12CC[C@@H](C)[C@H](C)[C@@H]1C1=CC[C@@H]3[C@@]4(C)C[C@@H](OC(C)=O)[C@H](O)[C@@](C)(CO)[C@@H]4[C@H](O)C[C@@]3(C)[C@]1(C)CC2` has a GI50 of 8.55 µM and a TGI of 22.8 µM. Molecule `C=C(C)[C@@H]1CC[C@]2(C(N)=O)CC[C@]3(C)[C@H](CC[C@@H]4[C@@]5(C)C/C(=C/c6cccnc6)C(=O)C(C)(C)[C@@H]5CC[C@]43C)[C@@H]12` has a GI50 of 3.5 µM and a TGI of 40.5 µM. Work on `CC(=O)/C(=C\c1c(-c2ccccc2)[nH]c2ccccc12)S(C)(=O)=O` yielded a GI50 of 1.79 µM and a TGI of 8.1 µM. `O=C1C=CC2(NN=C(c3ccccc3)N2c2ccccc2)c2cccc(O)c21` (stereo not given) gave a GI50 of 1.92 µM and a TGI of 9.09 µM. For `Cc1cccc(-n2cnc3cc(C(=O)N4CCCCC4)ccc32)c1`, the GI50 was 18.6 µM and the TGI was > 100 µM. For `COc1ccc(C(O)c2cc3c(N)c(C(=O)Nc4ccccc4)sc3nc2C)cc1` (stereo not given), the GI50 was 0.0298 µM and the TGI was > 100 µM.
